Assay results taken from patent publication US20240218022A1, “ANTI-VISTA MACROCYCLIC PEPTIDES AND COMPOSITIONS” (BRISTOL-MYERS SQUIBB COMPANY, priority 2022, published 2024).
Starred links: 1 amine or outer side, 2 acyl side, 3 side chain; linkers in the order of their positions; H or OH if unused. Positions of bridges follow the written chain, without caps; N, C: chain ends. Non-standard residues stand in square brackets, D forms with d. Residues, ends and D or L forms follow the SMILES beside them. ξ: configuration not given here. Morpholine(3S-CO) = O=C(O)[C@@H]1COCCN1; Phe(3-Me) = Cc1cccc(C[C@H](N)C(=O)O)c1; 2Nal = N[C@@H](Cc1ccc2ccccc2c1)C(=O)O; βAsp = O=C(O)[C@H](CC(=O)[*:2])N[*:1]; Pro(4ξ-F) = O=C(O)[C@@H]1CC(F)CN1; Ahp(2) = CCCCC[C@H](N)C(=O)O; NMeNle = CCCC[C@H](NC)C(=O)O; Tle = CC(C)(C)[C@H](N)C(=O)O; NHexGly = CCCCCCNCC(=O)O; Nle = CCCC[C@H](N)C(=O)O; Aun = NCCCCCCCCCCC(=O)O; AEEA = NCCOCCOCC(=O)O

Target: T1, mouse VISTA (mVISTA) (Mus musculus, UniProt Q9D659)
T1 construct: expressed in transfected cells; host or cells: Human embryonic kidney 293T cells
T1 sequence (Q9D659 33-308): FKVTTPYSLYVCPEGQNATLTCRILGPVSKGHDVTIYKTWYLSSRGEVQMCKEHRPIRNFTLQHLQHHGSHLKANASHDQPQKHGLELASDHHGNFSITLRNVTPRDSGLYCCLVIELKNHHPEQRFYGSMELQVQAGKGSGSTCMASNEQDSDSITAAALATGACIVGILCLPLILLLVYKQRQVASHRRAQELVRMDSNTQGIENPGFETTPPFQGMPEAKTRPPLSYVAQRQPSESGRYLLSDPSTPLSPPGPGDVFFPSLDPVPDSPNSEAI
Test: Cell-Based Binding High-Content Assay For mVISTA (HC CBA mVISTA)
Conditions: read-out: HC CBA mVISTA IC50
Procedure, shortened: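 mVISTA-293T, 4,000 cells/well; cpd ± washout step; biotin-peptide 2 nM final, 30 min RT; SA-Alexa 647 30 min; formaldehyde/Hoechst fix; HCS imaging; 4PL IC50.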

CCCCCCN1CC(=O)N[C@@H](Cc2ccc(O)cc2)C(=O)N[C@@H](CCCC)C(=O)N[C@@H](CC(N)=O)C(=O)N[C@@H](CCCNC(=N)N)C(=O)N(C)[C@@H](CCCC)C(=O)N[C@@H](CCCCC)C(=O)N2CCOC[C@H]2C(=O)N[C@@H](C(C)C)C(=O)N[C@@H](CO)C(=O)N[C@H](C(=O)N[C@@H](CC(=O)NCCOCCOCC(=O)NCCCCCCCCCCC(=O)O)C(=O)O)CSCC(=O)N[C@@H](Cc2ccccc2)C(=O)N[C@@H](Cc2c[nH]c3ccccc23)C(=O)N[C@@H](CC(=O)O)C1=O [Example 2193] ({CH2CO}-FWD[NHexGly]Y[Nle]NR[NMeNle][Ahp(2)][Morpholine(3S-CO)]VSC[βAsp][AEEA][Aun]-OH; thioether N-14)
IC50: 0.0161 µM

CCCCCCN1CC(=O)N[C@@H](Cc2ccc(O)cc2)C(=O)N[C@@H](CCCC)C(=O)N[C@@H](CC(N)=O)C(=O)N[C@@H](CCCNC(=N)N)C(=O)N(C)[C@@H](CCCC)C(=O)N[C@@H](CCCCC)C(=O)N2CC(F)C[C@H]2C(=O)N[C@@H](C(C)(C)C)C(=O)N[C@@H](CO)C(=O)N[C@H](C(=O)N[C@@H](CC(=O)NCCOCCOCC(=O)NCCCCCCCCCCC(=O)O)C(=O)O)CSCC(=O)N[C@@H](Cc2ccccc2)C(=O)N[C@@H](Cc2c[nH]c3ccccc23)C(=O)N[C@@H](CC(=O)O)C1=O (stereo partly shown) [Example 2194] ({CH2CO}-FWD[NHexGly]Y[Nle]NR[NMeNle][Ahp(2)][Pro(4ξ-F)][Tle]SC[βAsp][AEEA][Aun]-OH; thioether N-14)
IC50: 0.0386 µM

CCCCCCN1CC(=O)N[C@@H](Cc2ccc(O)cc2)C(=O)N[C@@H](CCCC)C(=O)N[C@@H](CC(N)=O)C(=O)N[C@@H](CCCNC(=N)N)C(=O)N(C)[C@@H](CCCC)C(=O)N[C@@H](CCCCC)C(=O)N2CCC[C@H]2C(=O)N[C@@H](C(C)(C)C)C(=O)N[C@@H](CO)C(=O)N[C@H](C(=O)N[C@@H](CC(=O)NCCOCCOCC(=O)NCCCCCCCCCCC(=O)O)C(=O)O)CSCC(=O)N[C@@H](Cc2ccc3ccccc3c2)C(=O)N[C@@H](Cc2ccc(O)cc2)C(=O)N[C@@H](CC(=O)O)C1=O [Example 2195] ({CH2CO}-[2Nal]YD[NHexGly]Y[Nle]NR[NMeNle][Ahp(2)]P[Tle]SC[βAsp][AEEA][Aun]-OH; thioether N-14)
IC50: 0.0303 µM

CCCCCCN1CC(=O)N[C@@H](Cc2ccc(O)cc2)C(=O)N[C@@H](CCCC)C(=O)N[C@@H](CC(N)=O)C(=O)N[C@@H](CCCNC(=N)N)C(=O)N(C)[C@@H](CCCC)C(=O)N[C@@H](CCCCC)C(=O)N2CC(F)C[C@H]2C(=O)N[C@@H](C(C)C)C(=O)N[C@@H](CO)C(=O)N[C@H](C(=O)N[C@@H](CC(=O)NCCOCCOCC(=O)NCCCCCCCCCCC(=O)O)C(=O)O)CSCC(=O)N[C@@H](Cc2ccccc2)C(=O)N[C@@H](Cc2c[nH]c3ccccc23)C(=O)N[C@@H](CC(=O)O)C1=O (stereo partly shown) [Example 2196] ({CH2CO}-FWD[NHexGly]Y[Nle]NR[NMeNle][Ahp(2)][Pro(4ξ-F)]VSC[βAsp][AEEA][Aun]-OH; thioether N-14)
IC50: 0.0284 µM

CCCCCCN1CC(=O)N[C@@H](Cc2ccc(O)cc2)C(=O)N[C@@H](CCCC)C(=O)N[C@@H](CC(N)=O)C(=O)N[C@@H](CCCNC(=N)N)C(=O)N(C)[C@@H](CCCC)C(=O)N[C@@H](CCCCC)C(=O)N2CCC[C@H]2C(=O)N[C@@H](C(C)(C)C)C(=O)N[C@@H](CO)C(=O)N[C@H](C(=O)N[C@@H](CC(=O)NCCOCCOCC(=O)NCCCCCCCCCCC(=O)O)C(=O)O)CSCC(=O)N[C@@H](Cc2cccc(C)c2)C(=O)N[C@@H](Cc2c[nH]c3ccccc23)C(=O)N[C@@H](CC(=O)O)C1=O [Example 2197] ({CH2CO}-[Phe(3-Me)]WD[NHexGly]Y[Nle]NR[NMeNle][Ahp(2)]P[Tle]SC[βAsp][AEEA][Aun]-OH; thioether N-14)
IC50: 0.0326 µM

CCCCCCN1CC(=O)N[C@@H](Cc2ccc(O)cc2)C(=O)N[C@@H](CCCC)C(=O)N[C@@H](CC(N)=O)C(=O)N[C@@H](CCCNC(=N)N)C(=O)N[C@@H](CC(C)C)C(=O)N[C@@H](CCCCC)C(=O)N2CCC[C@H]2C(=O)N[C@@H](C(C)C)C(=O)N[C@@H](CC(=O)O)C(=O)N[C@H](C(=O)NCCOCCOCC(=O)N[C@@H](CC(=O)NCCOCCOCC(=O)NCCCCCCCCCCC(=O)O)C(=O)O)CSCC(=O)N[C@@H](Cc2cccc(C)c2)C(=O)N[C@@H](Cc2c[nH]c3ccccc23)C(=O)N[C@@H](CC(=O)O)C1=O [Example 2198] ({CH2CO}-[Phe(3-Me)]WD[NHexGly]Y[Nle]NRL[Ahp(2)]PVDC[AEEA][βAsp][AEEA][Aun]-OH; thioether N-14)
IC50: 0.0152 µM

CCCCCCN1CC(=O)N[C@@H](Cc2ccc(O)cc2)C(=O)N[C@@H](CCCCC)C(=O)NCC(=O)N[C@@H](CCCNC(=N)N)C(=O)N[C@@H](CC(C)C)C(=O)N[C@@H](CCCCC)C(=O)N2CCC[C@H]2C(=O)N[C@@H](C(C)C)C(=O)N[C@@H](CO)C(=O)N[C@H](C(=O)NCCOCCOCC(=O)N[C@@H](CC(=O)NCCOCCOCC(=O)NCCCCCCCCCCC(=O)O)C(=O)O)CSCC(=O)N[C@@H](Cc2ccccc2)C(=O)N[C@@H](Cc2ccc(O)cc2)C(=O)N[C@@H](CC(=O)O)C1=O [Example 2199] ({CH2CO}-FYD[NHexGly]Y[Ahp(2)]GRL[Ahp(2)]PVSC[AEEA][βAsp][AEEA][Aun]-OH; thioether N-14)
IC50: 0.0183 µM

CCCCCCN1CC(=O)N[C@@H](Cc2ccc(O)cc2)C(=O)N[C@@H](CCCC)C(=O)N[C@@H](CC(N)=O)C(=O)N[C@@H](CCCNC(=N)N)C(=O)N(C)[C@@H](CCCC)C(=O)N[C@@H](CCCCC)C(=O)N2CCC[C@H]2C(=O)N[C@@H](C(C)C)C(=O)N[C@@H](CC(=O)O)C(=O)N[C@H](C(=O)NCCOCCOCC(=O)N[C@@H](CC(=O)NCCOCCOCC(=O)NCCCCCCCCCCC(=O)O)C(=O)O)CSCC(=O)N[C@@H](Cc2ccc3ccccc3c2)C(=O)N[C@@H](Cc2c[nH]c3ccccc23)C(=O)N[C@@H](CC(=O)O)C1=O [Example 2200] ({CH2CO}-[2Nal]WD[NHexGly]Y[Nle]NR[NMeNle][Ahp(2)]PVDC[AEEA][βAsp][AEEA][Aun]-OH; thioether N-14)
IC50: 0.0165 µM

CCCCCCN1CC(=O)N[C@@H](Cc2ccc(O)cc2)C(=O)N[C@@H](CC(C)C)C(=O)N[C@@H](CC(N)=O)C(=O)N[C@@H](CCCNC(=N)N)C(=O)N[C@@H](CC(C)C)C(=O)N[C@@H](CCCCC)C(=O)N2CCC[C@H]2C(=O)N[C@@H](C(C)C)C(=O)N[C@@H](C(C)C)C(=O)N[C@H](C(=O)NCCOCCOCC(=O)N[C@@H](CC(=O)NCCOCCOCC(=O)NCCCCCCCCCCC(=O)O)C(=O)O)CSCC(=O)N[C@@H](Cc2ccccc2)C(=O)N[C@@H](Cc2ccc(O)cc2)C(=O)N[C@@H](CC(=O)O)C1=O [Example 2201] ({CH2CO}-FYD[NHexGly]YLNRL[Ahp(2)]PVVC[AEEA][βAsp][AEEA][Aun]-OH; thioether N-14)
IC50: 0.0209 µM

CCCCCCN1CC(=O)N[C@@H](Cc2ccc(O)cc2)C(=O)N[C@@H](CCCC)C(=O)N[C@@H](CC(N)=O)C(=O)N[C@@H](CCCNC(=N)N)C(=O)N(C)[C@@H](CCCC)C(=O)N[C@@H](CCCCC)C(=O)N2CCC[C@H]2C(=O)N[C@@H](C(C)C)C(=O)N[C@@H](CC(=O)O)C(=O)N[C@H](C(=O)NCCOCCOCC(=O)N[C@@H](CC(=O)NCCOCCOCC(=O)NCCCCCCCCCCC(=O)O)C(=O)O)CSCC(=O)N[C@@H](Cc2ccccc2)C(=O)N[C@@H](Cc2c[nH]c3ccccc23)C(=O)N[C@@H](CC(=O)O)C1=O [Example 2204] ({CH2CO}-FWD[NHexGly]Y[Nle]NR[NMeNle][Ahp(2)]PVDC[AEEA][βAsp][AEEA][Aun]-OH; thioether N-14)
IC50: 0.0149 µM
